# According to patent publication US4874869A, “Hydantoin derivatives and medicines containing the same” (Eisai Co., Ltd., priority 1980, dated 1989):
# Where two headings read alike, the source gives them in different places.
# Key:
# [1] = test system: sorbitol accumulation in the lens and the sciatic nerve; experiment: Reduction or inhibition of sorbitol accumulation in the lens and the sciatic nerve of streptozotocin-induced diabetic rats; format: in vivo, rat; settings: for Inhibition of sorbitol accumulation: vs no compound; for higher activities such as the inhibition of sorbitol accumulation, predominant diastereomer compared with the other isomer: predominant vs minor diastereomer; for superior effect on the inhibition of sorbitol accumulation in comparison with the control compound: vs control compound, Table 1
# Experimental: The compounds listed in Tables 1 and 2 were tested for the ability to reduce or inhibit the accumulation of sorbitol in the lens and the sciatic nerve of streptozotocin-induced diabetic rats by the method of M. J. Peterson et al., [Metabolism, Vol. 28, No. 4, Supply. 1 (April), 456-461 (1979)]. […] In this experiment, the amount of sorbitol accumulation in the lens and the sciatic nerve of the rat was measured 28 hours after induction of diabetes.
# The compounds listed in Tables 1 and 2 were orally administered at, the dose levels indicated in the Tables, 4, 8 and 25 hours after the administration of the streptozotocin.
# aldose reductase = molecular target: T1, aldose reductase (Bos taurus, UniProt P16116); experiment: Inhibition effect on aldose reductase; format: biochemical; settings: for activity of the d-type relative to the dl-type product: aldose reductase
# T1 construct: Aldose reductase was prepared by the method of Hayman et al; from tissue
# Experimental: Aldose reductase was prepared by the method of Hayman et al. [S. Hayman and K.K. Kinoshita; Journal of Biological Chemistry, Vol. 240, p.
# [2] = test system: cataract formation in galactosemic rats; experiment: Effect on cataract formation in galactosemic rats (visual observation of lenticular opacities); format: in vivo, male Sprague-Dawley rats; settings: for lenticular opacities, number with grade + / lenticular opacities, number with grade - (no opacity) / lenticular opacities, number with grade ++ / lenticular opacities, number with grade +++: 16th day, total 6
# Experimental: (§1) On the 16th day of the study (24 hours after the final administration) lenticular opacities were observed, and then the lens and the sciatic nerve were enucleated to determine the content of carbohydrates.
# The abscissa in FIG. 1 indicates the number of days from the beginning of feeding of a 30% galactose diet, and the ordinate indicates the percentages of appearance of the cataract.
# In Table 3, a symbol - represents the case of no opacity and +, ++, +++ show the grade of the opacity, respectively.
# [3] = test system: galactitol accumulation in the lens and the sciatic nerve; experiment: Inhibition of galactitol accumulation in the lens and the sciatic nerve of galactosemic rats; format: in vivo, male Sprague-Dawley rats; settings: for Inhibition of galactitol accumulation: 16th day
# Experimental: as §1
# [4] = lens, 10 mg/kg oral, 4, 8 and 25 h after streptozotocin
# [5] = sciatic nerve, 10 mg/kg oral, 4, 8 and 25 h after streptozotocin
# [6] = lens, 0.2 mg/kg oral, 4, 8 and 25 h after streptozotocin
# [7] = lens, 1 mg/kg oral, 4, 8 and 25 h after streptozotocin
# [8] = lens, 5 mg/kg oral, 4, 8 and 25 h after streptozotocin
# [9] = sciatic nerve, 0.2 mg/kg oral, 4, 8 and 25 h after streptozotocin
# [10] = sciatic nerve, 1 mg/kg oral, 4, 8 and 25 h after streptozotocin
# [11] = sciatic nerve, 5 mg/kg oral, 4, 8 and 25 h after streptozotocin
# [12] = Table 5, read-out: ID50 (concentration of 50% inhibition on aldose reductase)
# [13] = similar manner as in Experiment 3, d-type vs dl-type product, read-out: ID50, inhibition effect on the Aldose reductase
# [14] = right, 25 mg/kg oral once a day
# [15] = sciatic nerve, 1 mg/kg oral once a day
# [16] = sciatic nerve, 5 mg/kg oral once a day
# [17] = sciatic nerve, 25 mg/kg oral once a day
SMILES,Inhibition on aldose reductase (aldose reductase; 3 × 10^-6 (M)) [%],Inhibition on aldose reductase (aldose reductase; 3 × 10^-7 (M)) [%],Inhibition on aldose reductase (aldose reductase; 10^-6 (M)) [%],Inhibition on aldose reductase (aldose reductase; 10^-7 (M)) [%],IC50 (aldose reductase; [12]) [nM],IC50 (aldose reductase; [13]) [nM],"Inhibition of sorbitol accumulation [1, 4] [%]","Inhibition of sorbitol accumulation [1, 5] [%]","Inhibition of sorbitol accumulation [1, 6] [%]","Inhibition of sorbitol accumulation [1, 7] [%]","Inhibition of sorbitol accumulation [1, 8] [%]","Inhibition of sorbitol accumulation [1, 9] [%]","Inhibition of sorbitol accumulation [1, 10] [%]","Inhibition of sorbitol accumulation [1, 11] [%]",other results
"CC1(C)CC2(NC(=O)NC2=O)c2cc(Cl)cc(Cl)c2O1 (stereo not drawn) [6,8-Dichloro-2,2-dimethyl-spiro-[chroman-4,4'-imidazolidine]-2',5'-dione]",–,–,–,–,–,–,87,55,–,–,–,–,–,–,–
"CC1CC2(NC(=O)NC2=O)c2ccc(Cl)cc2O1 (stereo not drawn) [7-Chloro-2-methyl-spiro-[chroman-4,4'-imidazolidine]-2',5'-dione]",–,–,–,–,–,–,–,–,–,–,83,–,–,–,–
"CC1CC2(NC(=O)NC2=O)c2ccccc2O1 (stereo not drawn) [2-Methyl-spiro-[chroman-4,4'-imidazolidine]-2',5'-dione]",–,–,–,–,–,–,–,–,–,–,54,–,–,77,–
"CC1(C)CC2(NC(=O)NC2=O)c2cc(Br)ccc2O1 (stereo not drawn) [6-Bromo-2,2-dimethyl-spiro-[chroman-4,4'-imidazolidine]-2',5'-dione]",–,–,–,–,–,–,88,100,–,–,–,–,–,–,–
"CC1CC2(NC(=O)NC2=O)c2cc(Cl)c(Cl)cc2O1 (stereo not drawn) [6,7-Dichloro-2-methyl-spiro-[chroman-4,4'-imidazolidine]-2',5'-dione]",–,–,–,–,–,–,–,–,–,–,88,–,–,–,–
"CC1Oc2ccc(Cl)cc2C12NC(=O)NC2=O (stereo not drawn) [5-Chloro-2-methyl-spiro-[benzofuran-3,4'-imidazolidine]-2',5'-dione]",–,–,–,–,–,–,95,45,–,–,–,–,–,–,–

# Now from value to compound, other results behind:
Inhibition on aldose reductase (aldose reductase; 3 × 10^-6 (M)) [%],Inhibition on aldose reductase (aldose reductase; 3 × 10^-7 (M)) [%],Inhibition on aldose reductase (aldose reductase; 10^-6 (M)) [%],Inhibition on aldose reductase (aldose reductase; 10^-7 (M)) [%],IC50 (aldose reductase; [12]) [nM],IC50 (aldose reductase; [13]) [nM],SMILES,"Inhibition of sorbitol accumulation [1, 4] [%]","Inhibition of sorbitol accumulation [1, 5] [%]","Inhibition of sorbitol accumulation [1, 6] [%]","Inhibition of sorbitol accumulation [1, 7] [%]","Inhibition of sorbitol accumulation [1, 8] [%]","Inhibition of sorbitol accumulation [1, 9] [%]","Inhibition of sorbitol accumulation [1, 10] [%]","Inhibition of sorbitol accumulation [1, 11] [%]",other results
91,31,77,7,500,180,"CC1CC2(NC(=O)NC2=O)c2cc(F)ccc2O1 (stereo not drawn) [6-Fluoro-2-methyl-spiro-[chroman-4,4'-imidazolidine]-2',5'-dione]",96,100,43,80,93,39,100,100,"higher activities such as the inhibition of sorbitol accumulation, predominant diastereomer compared with the other isomer [1]: 3-5 times; superior effect on the inhibition of sorbitol accumulation in comparison with the control compound [1]: 2-10 times"
–,–,–,–,–,93,"CC1CC2(NC(=O)NC2=O)c2cc(F)ccc2O1 (stereo not drawn) [d-6-fluoro-2-methyl-spiro-[chromane-4,4'-imidazolidine]-2',5'-dione]",–,–,–,–,–,–,–,–,activity of the d-type relative to the dl-type product (aldose reductase; d-type vs dl-type product): about twice
92,31,84,0,400,77,"CC1CC2(NC(=O)NC2=O)c2cc(Cl)ccc2O1 (stereo not drawn) [6-Chloro-2-methyl-spiro-[chroman-4,4'-imidazolidine]-2',5'-dione]",97,82,–,–,–,–,–,–,"higher activities such as the inhibition of sorbitol accumulation, predominant diastereomer compared with the other isomer [1]: 3-5 times; superior effect on the inhibition of sorbitol accumulation in comparison with the control compound [1]: 2-10 times"
79,8,47,-4,1000,–,"CC1(C)CC2(NC(=O)NC2=O)c2cc(Cl)ccc2O1 (stereo not drawn) [6-Chloro-2,2-dimethyl-spiro-[chroman-4,4'-imidazolidine]-2',5'-dione]",89,100,11,60,78,47,86,95,"lenticular opacities on the 16th day (in words) ([2]; 5 mg/kg oral once a day): lenticular opacities were not observed; lenticular opacities on the 16th day (in words) ([2]; 25 mg/kg oral once a day): lenticular opacities were not observed; inhibition effect on cataract formation (in words) ([2]; galactosemic rats, FIG. 1 and Table 3): superior to the control compound; lenticular opacities, number with grade + ([2]; left, 1 mg/kg oral once a day): 1; lenticular opacities, number with grade - (no opacity) ([2]; left, 1 mg/kg oral once a day): 5; lenticular opacities, number with grade - (no opacity) ([2]; left, 5 mg/kg oral once a day): 6; lenticular opacities, number with grade - (no opacity) ([2]; left, 25 mg/kg oral once a day): 6; lenticular opacities, number with grade + ([2]; right, 1 mg/kg oral once a day): 1; lenticular opacities, number with grade - (no opacity) ([2]; right, 1 mg/kg oral once a day): 5; lenticular opacities, number with grade - (no opacity) ([2]; right, 5 mg/kg oral once a day): 6; lenticular opacities, number with grade - (no opacity) [2, 14]: 6; Inhibition of galactitol accumulation ([3]; lens, 1 mg/kg oral once a day): 2%; Inhibition of galactitol accumulation ([3]; lens, 5 mg/kg oral once a day): 19%; Inhibition of galactitol accumulation ([3]; lens, 25 mg/kg oral once a day): 46%; Inhibition of galactitol accumulation [3, 15]: 5%; Inhibition of galactitol accumulation [3, 16]: 50%; Inhibition of galactitol accumulation [3, 17]: 74%; inhibitory effect on galactitol accumulation in the sciatic nerve relative to the control compound ([3]; sciatic nerve, vs control compound): five times or more; inhibition of galactitol accumulation relative to the control compound ([3]; vs control compound): remarkably superior to the control compound"
–,–,–,–,–,43,"CC1CC2(NC(=O)NC2=O)c2cc(Cl)ccc2O1 (stereo not drawn) [d-6-chloro-2-methyl-spiro-[chromane-4,4'-imidazolidine]-2',5'-dione]",–,–,–,–,–,–,–,–,activity of the d-type relative to the dl-type product (aldose reductase; d-type vs dl-type product): about twice
78,17,53,2,–,–,"O=C1NC(=O)C2(CCOc3ccc(F)cc32)N1 (stereo not drawn) [6-fluoro-spiro-[chroman-4,4'-imidazolidine]-2',5'-dione, reference compound]",77,88,-29,41,62,26,15,67,"lenticular opacities on the 16th day (in words) ([2]; 25 mg/kg oral once a day): lenticular opacities were not observed; lenticular opacities, number with grade ++ ([2]; left, 1 mg/kg oral once a day): 3; lenticular opacities, number with grade +++ ([2]; left, 1 mg/kg oral once a day): 3; lenticular opacities, number with grade + ([2]; left, 5 mg/kg oral once a day): 4; lenticular opacities, number with grade - (no opacity) ([2]; left, 5 mg/kg oral once a day): 2; lenticular opacities, number with grade - (no opacity) ([2]; left, 25 mg/kg oral once a day): 6; lenticular opacities, number with grade ++ ([2]; right, 1 mg/kg oral once a day): 2; lenticular opacities, number with grade +++ ([2]; right, 1 mg/kg oral once a day): 4; lenticular opacities, number with grade + ([2]; right, 5 mg/kg oral once a day): 4; lenticular opacities, number with grade - (no opacity) ([2]; right, 5 mg/kg oral once a day): 2; lenticular opacities, number with grade - (no opacity) [2, 14]: 6; Inhibition of galactitol accumulation ([3]; lens, 1 mg/kg oral once a day): -11%; Inhibition of galactitol accumulation ([3]; lens, 5 mg/kg oral once a day): 5%; Inhibition of galactitol accumulation ([3]; lens, 25 mg/kg oral once a day): 22%; Inhibition of galactitol accumulation [3, 15]: 1%; Inhibition of galactitol accumulation [3, 16]: -12%; Inhibition of galactitol accumulation [3, 17]: 17%"
70,12,40,0,2000,–,"CC1(C)CC2(NC(=O)NC2=O)c2cc(F)ccc2O1 (stereo not drawn) [6-Fluoro-2,2-dimethyl-spiro-[chroman-4,4'-imidazolidine]-2',5'-dione]",81,93,35,58,72,22,33,81,–
